Laboratory results: patent US20140263071A1, “METHOD FOR COLLECTING METALS” (CHEMEC OY AB, priority 2011, published 2014)

Assays:
[1] = Optimal expulsion pH range with minimum expulsion percent, single elements (Example 7)
Experimental: (§1) A water solution (110 ml) containing known amount of single cationic element or elements, typically 0.5-200 ppm, was prepared from Merch Titrisol® standard solution. After adjusting pH by using acid (e.g. HCl or HNO3) or base (e.g. NaOH) to desired initial value, sample A (10 ml) was taken followed by adding 100 mg of selected solid complexation agent. The mixture was stirred at room temperature for 24 h and sample B (10 ml) was taken. Samples A and B were filtrated separately trough 0.2 μm syringe filter and the concentration of the studied element or elements in both solution was determined by using atomic absorption spectrophotometer. The expulsion percent was determined from the concentration differences between the sample solutions A and B.
Using the above mentioned general procedure optimal expulsion pH ranges for each metal with complexation agent 1a was determined. For each element the expulsion percent was determined in 5-14 different pH value. The obtained results are shown in table below with minimum expulsion percent inside the optimal pH range.

[2] = Maximum expulsion percent of single metal cations from water solution (Example 8)
Experimental: as §1
The maximum expulsion percent and pH value in which the value was achieved was determined for each single cationic element using the general procedure mentioned above.

NCCCCCCCCCCC(O)(P(=O)(O)O)P(=O)(O)O [Compound 1a, 11-Amino-1-hydroxyundecane-1,1-diyldiphosphonic acid]
Expulsion [%] ([1]; Ag^+, minimum within pH range 1.5-12): >84%
Expulsion [%] ([1]; Al^3+, minimum within pH range 1-2): >96%
Expulsion [%] ([1]; Au^3+, minimum within pH range 0-2): >39%
Expulsion [%] ([1]; Ba^2+, minimum within pH range 3-12): >75%
Expulsion [%] ([1]; Bi^3+, minimum within pH range 0.5-4): 100%
Expulsion [%] ([1]; Ca^2+, minimum within pH range 4-12): >50%
Expulsion [%] ([1]; Cd^2+, minimum within pH range 3-11): >36%
Expulsion [%] ([1]; Co^2+, minimum within pH range 4-11): >77%
Expulsion [%] ([1]; Cr^3+, minimum within pH range 2.5-12): >60%
Expulsion [%] ([1]; Cr^6+, As^3/5+, Ta^5+, within pH range 0-12): <8%
Expulsion [%] ([1]; Cu^2+, minimum within pH range 3-11): >87%
Expulsion [%] ([1]; Cu^+, minimum within pH range 3-11): >79%
Expulsion [%] ([1]; Eu^3+, minimum within pH range 2-8): 70%
Expulsion [%] ([1]; Fe^2+, minimum within pH range 3-10): >79%
Expulsion [%] ([1]; Fe^3+, minimum within pH range 1-11): >55%
Expulsion [%] ([1]; Ga^3+, minimum within pH range 0.5-1): 100%
Expulsion [%] ([1]; Ga^3+, minimum within pH range 6-11): >90%
Expulsion [%] ([1]; Hg^2+, minimum within pH range 2-11): >90%
Expulsion [%] ([1]; Hg^+, minimum within pH range 2-11): >80%
Expulsion [%] ([1]; Ir^3+, minimum within pH range 0.0-0.5): >65%
Expulsion [%] ([1]; La^3+, minimum within pH range 0-3.8): >40%
Expulsion [%] ([1]; Li^+, Na^+, K^+, within pH range 0-12): <5%
Expulsion [%] ([1]; Mg^2+, minimum within pH range 4-12): >74%
Expulsion [%] ([1]; Mn^2+, minimum within pH range 4-10): >69%
Expulsion [%] ([1]; Mo^6+, minimum within pH range 4-10): >55%
Expulsion [%] ([1]; Nb^5+, minimum within pH range 0-12): >40%
Expulsion [%] ([1]; Nd^3+, minimum within pH range 2-8): >75%
Expulsion [%] ([1]; Ni^2+, minimum within pH range 4-11): >40%
Expulsion [%] ([1]; Os^4+, minimum within pH range 5-7): >40%
Expulsion [%] ([1]; Pb^2+, minimum within pH range 2-9): >79%
Expulsion [%] ([1]; Pd^2+, minimum within pH range 7-12): >65%
Expulsion [%] ([1]; Pt^2+, minimum within pH range 0-1): >60%
Expulsion [%] ([1]; Rh^3+, minimum within pH range 2-10): >19%
Expulsion [%] ([1]; Ru^3+, minimum within pH range 2-11): >55%
Expulsion [%] ([1]; Sb^3+, minimum within pH range 0.5-11): >75%
Expulsion [%] ([1]; Sc^3+, minimum within pH range 0-12): >80%
Expulsion [%] ([1]; Si^4+, Se^4/6+, within pH range 0-12): <2%
Expulsion [%] ([1]; Sn^2+, minimum within pH range 8-10): 100%
Expulsion [%] ([1]; Sn^4+, minimum within pH range 7-11): >91%
Expulsion [%] ([1]; Sr^2+, minimum within pH range 4-12): >80%
Expulsion [%] ([1]; Ti^4+, minimum within pH range 10-12): >35%
Expulsion [%] ([1]; V^4+, minimum within pH range 0-0.5): >30%
Expulsion [%] ([1]; W^6+, minimum within pH range 0.5-3): >12%
Expulsion [%] ([1]; Y^3+, minimum within pH range 1.5-4 >10): >60%
Expulsion [%] ([1]; Zn^2+, minimum within pH range 4-11): >75%
Expulsion [%] ([1]; Zr^4+, minimum within pH range 0-4.8-10): 60%
Expulsion-% (maximum) ([2]; Ag^+, pH 2.0, initial 1 ppm): 100%
Expulsion-% (maximum) ([2]; Al^3+, pH 2.1, initial 10 ppm): 96.9%
Expulsion-% (maximum) ([2]; Au^3+, pH 0.5, initial 1 ppm): 63.3%
Expulsion-% (maximum) ([2]; Ba^2+, pH 3.0, initial 10 ppm): 90.2%
Expulsion-% (maximum) ([2]; Bi^3+, pH 3.0, initial 10 ppm): 100%
Expulsion-% (maximum) ([2]; Ca^2+, pH 2.6, initial 2 ppm): 69.9%
Expulsion-% (maximum) ([2]; Cd^2+, pH 3.6, initial 0.5 ppm): 97.3%
Expulsion-% (maximum) ([2]; Co^2+, pH 3.4, initial 1 ppm): 85.0%
Expulsion-% (maximum) ([2]; Cr^3+, pH 3.1, initial 2 ppm): 97.2%
Expulsion-% (maximum) ([2]; Cr^6+, pH 6.6, initial 2 ppm): 0%
Expulsion-% (maximum) ([2]; Cu^2+, pH 3.5, initial 2 ppm): 95.7%
Expulsion-% (maximum) ([2]; Cu^+, pH 2.4, initial 2 ppm): 85.3%
